Results as given in patent publication US20260240807A1, “UROLITHINS FOR IMPROVING CARDIAC FUNCTION AND HEALTH” (Amazentis SA, priority 2022, published 2026).

Key:
[1] = test system: Wistar male rats with myocardial infarction (permanent LAD occlusion); assay: Echocardiography and heart mass after myocardial infarction (LAD ligation); assay type: in vivo, rat; conditions: MI rats, 25 mg/kg daily by gavage for 2 months starting one week after MI, vs MI vehicle
Method: The goal of the study is to assess urolithin A treatment effect on heart function after myocardial infarction. […] Myocardial infarction (MI) was induced in 6-week old Wistar male rats from groups 1, 2, and 3 (Table 3), by permanent occlusion of Left Anterior Descending coronary artery (ligation was performed at Do).
Rats were anesthetized with an intraperitoneal (IP) injection of Medetomidine (0.5 mg/kg) and ketamine (50 mg/kg), intubated and ventilated at 10 mL/kg tidal volume and 70-80 cycles/min. Body temperature were maintained between 36.5° C. and 37.5° C. via a thermoregulated heating pad connected to a rectal probe. Rats were placed in supine position, chest-shaved and prepared for standard surgical conditions. A left lateral thoracotomy was carefully performed so as to expose the heart. Then, a suture was placed around the LAD (4/0 Silk, Ethicon), around 2 mm below the left atrium and close to the interventricular junction, in order to obtain infarct size (IS) near 40% of the total left ventricular (LV) area. Chest was closed, air was expelled from the rib cage to avoid pneumothorax and quick reanimation was performed using atipamezole hydrochloride (IM, 0.5 mg/ml, Zoetis).
Animals from group 1 were subjected to the same protocol as MI groups. However, after the left lateral thoracotomy exposing the heart, the rib cage were closed without passing the suture thread around LAD.
Urolithin A or vehicle were administered by gavage at 25 mg/kg starting one week after myocardial infraction. Heart and plasma samples were collected at each time point. Ejection Fraction (EF), Fractional Shortening (FS), Isovolumic relaxation time (IVRT) were measured by echocardiography at 1 month and 2 month time points to evaluate heart function. […]
Rats were anesthetized with 4% isoflurane in 50% oxygen-50% air mixture and maintained with 2% isoflurane during the procedure. […] Body temperature was monitored and maintained between 36.5-37.5° C. via a rectal probe connected to the thermoregulated heating pad.
Standard B-mode (Brightness-mode) and M-mode (Motion-mode) images of the heart were obtained in the two-dimensional (2D) parasternal long axis view (PSLA). LV parameters will be measured and calculated as the mean of 3 consecutive cardiac cycles by a single blinded trained operator. • Left Ventricular function LV function is calculated using the LV dimensions parameters previously described. • FS=fractional shortening=[(LVIDd−LVIDs)/LVIDd]*100. It is a calculation based on the difference of dimensions between systole and diastole measured in M-mode. […] It is a calculation based on the difference of volumes between systole and diastole measured in B-mode and M-mode. […]

[2] = test system: gene sets (Cellular Components) linked to mitochondrial function in heart tissue; assay: RNA-seq gene set enrichment analysis of heart sections, MI rats; assay type: in vivo, rat; conditions: MI+UA vs MI rats, 25 mg/kg PO
Method: Heart sections from rats in the groups described in FIG. 1 (Example 1) have been prepared using a microtome, deparaffinized and RNA extracted using the following kit (RNAeasy FFPE 76504, Qiagen). Upon extraction, RNA was quality controlled with Agilent Fragment Analyzer System.
Library preparation was performed using Strand-specific cDNA library and following the steps here indicated: • rRNA depletion. • mRNA fragmentation. • Random primed cDNA synthesis (strand-specific) • Adapter ligation and adapter specific PCR amplification RNA-seq run was executed with the NovaSeq6000 using S4 flowcells with 2×150 bp.
QC and preprocessing of raw sequencing reads was performed using an in-house QC pipeline. […] High quality RNA-seq read pairs were mapped to the Ensembl rat reference genome
Reads with a minimum PHRED score of 15, a minimum length of 15 bp, and a minimum unqualified percent limit of 40 (40%) were retained for downstream analysis. […]
Gene Set Enrichment Analysis (GSEA) (Subramanian, et al. Proc Natl Acad Sci USA 2005, 102 (43), 15545-50) was performed for characterizing complex relations of gene expression changes with gene ontologies (cellular components), under different biological conditions. […] Gene ranking information is transformed to pathway level to assign statistical significance for each analyzed gene set. […]

Old C57BL/6 mice [3] = assay: Echocardiography in old mice (age-related heart dysfunction); assay type: in vivo, mouse; conditions: old mice (26 months), chow diet with urolithin A 50 mg/kg for 2 months
Method: (§1) The goal of the study is to evaluate urolithin treatment effect age-related heart dysfunction. […] Old C57BL/6 mice (26 months) were used as model to reproduce natural decline in heart function with aging. Chow diet with and without urolithin A was administered for 2 months at 50 mg/kg. Post-mortem heart muscles, skeletal muscles, and plasma samples post-mortem were collected at the end of the study. Ejection Fraction (EF), Fractional Shortening (FS) were measured by echocardiography. Muscle contractility was also measured. Analysis of both heart and skeletal muscle function were conducted at the end of the study.

Old C57BL/6 mice [4] = assay: Skeletal muscle function (muscle contractility) in old mice; assay type: in vivo, mouse; conditions: old mice (26 months), chow diet with urolithin A 50 mg/kg for 2 months
Method: as §1

[5] = test system: heart mitochondria of old C57BL/6 mice; assay: Transmission electron microscopy of heart mitochondria in old mice; assay type: in vivo, mouse; conditions: 50 mg/kg by gavage for 2 months, vs old vehicle
Method: (§2) The goal of the study was to evaluate urolithin treatment effect on age-related heart dysfunction. Old C57BL/6 mice (24 months at the end of the study) were used as model to reproduce natural decline in heart function with aging and administered by gavage for 2 months with either Urolithin A at 50 mg/kg (Old UA) or vehicle (Old Vehicle). Young mice (18 weeks-old at the end of the study) were administered with vehicle for 2 months. Post-mortem heart muscles, were collected at the end of the study.
Muscle samples from animals as described in example 2 were fixed in 2% glutaraldehyde solution 0.1 M Sorenson's buffer (pH 7.3). These samples were later postfixed in 1% osmium tetroxide for 8 min [pulse microwaved (MW), 100 watts (W)] and rinsed in distilled H2O (3×150 W 40 s per step). Samples were dehydrated in a graded series of acetone (25%; 50%; 75%; 3× 100%; 150 W 40 seconds per step) before being impregnated with increasing concentrations of epoxy resin (TAAB medium resin) in acetone (25%; 50%; 75%; 3×100%; 300 W 3 min per step). The samples were then embedded in 100% fresh resin and left to polymerize at 60° C. in a conventional oven for a minimum of 24 h.
All resin blocks were trimmed using a razor blade to form a trapezoid block face. Sections were cut in a longitudinal or transverse orientation on an ultramicrotome (Wolf et al., 2019) using a diamond knife. Semithin sections (0.5 μm) were stained with toluidine blue and viewed on a light microscope (LM) to verify orientation of tissue. Ultrathin sections (70 nm) were then cut and picked up onto copper grids. Sections from blocks were stained with 1% uranyl acetate (30 min) and 3% lead citrate (7 min). All sections were examined using a HT7800 120 kV TEM (Hitachi). Digital micrographs were captured using an EMSIS Xarosa CMOS Camera with Radius software.
These samples were later postfixed in 1% osmium tetroxide during 1 h, dehydrated within an increasing concentration of acetone. […]
Individual heart mitochondria from 3 Young vehicle, 3 Old vehicle and 3 Old UA O-AL mice were manually traced in transverse orientations using ImageJ software (NIH) (https://imagej.nih.gov/ij/) and to quantify the following morphological and shape descriptors: area (μm2), perimeter (μm), circularity 4π×(area/perimeter2), aspect ratio ((major axis)/(minor axis)): the aspect ratio being a measure of the length to width ratio, form factor ((perimeter)/(4π×surface)): a measure sensitive to the complexity and the branched appearance of the mitochondria, Feret's diameter (the longest distance (μm) between two points of the mitochondria studied) and minimum Feret diameter (corresponds to the smallest diameter of the mitochondria) (Picard et al., 2012). […]

[6] = test system: gene sets (Cellular Components) repressed with aging in heart; assay: RNA-seq gene set enrichment analysis of heart, old mice; assay type: in vivo, mouse; conditions: old mice treated with UA 50 mg/kg for 2 months vs old vehicle
Method: as §2
RNA-seq analysis from samples derived from example 3 has been performed as described for example 1.
A Gene set enrichment analysis was performed looking at gene set (i.e., biological pathways) belonging to the category “Cellular Components”.

[7] = test system: mitochondrial complex II enzyme SDH; assay: Succinate dehydrogenase activity staining of heart sections; assay type: in vivo, mouse; conditions: old mice, 50 mg/kg by gavage for 2 months, vs old vehicle control
Method: as §2
Hearts in OCT were cut into sections of […] using a cryostat. Sections were then incubated in a solution containing nitroblue tetrazolium (1.5 mM), sodium succinate (130 mM), phenazine methosulphate (0.2 mM), and sodium azide (0.1 mM) for 6 min at room temperature. The reaction was stopped by two washes in PBS. Slides were mounted using Fluoromont mounting medium (Thermofisher, 00-4958-02). All samples were processed successively using the same incubation solution ensuring that they underwent the exact same experimental conditions. Images of the tissues were taken with a bright field microscope. The intensity of the staining was analyzed with Image J.

SDH enzymatic activity in the heart [7]: significantly increases
Compound: O=c1oc2cc(O)ccc2c2ccc(O)cc12 [Urolithin A]
cardiac hypertrophy, calculated as heart weight over tibia length [1]: reduces | diastolic function, measured as isovolumetric relaxation time [1]: improves | systolic dysfunction measured as Ejection fraction [1]: significantly improves | systolic dysfunction measured as Fractional shortening [1]: significantly improves | gene sets repressed with MI (mitochondrial protein-containing complex, respirasome, nucleoids, peroxisomes), normalized enrichment score [2]: induced | increase in fractional shortening, after high-workload (Old C57BL/6 mice [3]; after high-workload): +39% | increase in fractional shortening, basally (Old C57BL/6 mice [3]; basal): +32% | skeletal muscle function (Old C57BL/6 mice [4]): significantly prevents age-related decline | cristae number ([5]; heart mitochondria): significantly increases | cristae volume density ([5]; heart mitochondria): significantly increases | mitophagy events, quantified as number of mitolysosomes ([5]; heart): significantly increases | mitochondrial area ([5]; heart, to levels compared to young animals): significantly increased | gene sets repressed with aging (respirasome, sarcolemma), normalized enrichment score [6]: induced
